Results as given in patent publication US5260451A, “Substituted pyrrole compounds and use thereof in pharmaceutical compositions” (priority 1989, dated 1993).

Legend:
Type in all cases: cell-based
5-lipoxygenase [1] = molecular target: T1, 5-lipoxygenase (Bos taurus, UniProt F1MQ78); experiment: inhibition of 5-lipoxygenase (LTB4 formed by calcium-ionophore stimulated bovine granulocytes)
T1 construct: The source for 5-lipoxygenase were bovine granulocytes; endogenous in cells; host or cells: granulocytes isolated from EDTA-anticoagulated bovine blood
T1 sequence (F1MQ78 1-674): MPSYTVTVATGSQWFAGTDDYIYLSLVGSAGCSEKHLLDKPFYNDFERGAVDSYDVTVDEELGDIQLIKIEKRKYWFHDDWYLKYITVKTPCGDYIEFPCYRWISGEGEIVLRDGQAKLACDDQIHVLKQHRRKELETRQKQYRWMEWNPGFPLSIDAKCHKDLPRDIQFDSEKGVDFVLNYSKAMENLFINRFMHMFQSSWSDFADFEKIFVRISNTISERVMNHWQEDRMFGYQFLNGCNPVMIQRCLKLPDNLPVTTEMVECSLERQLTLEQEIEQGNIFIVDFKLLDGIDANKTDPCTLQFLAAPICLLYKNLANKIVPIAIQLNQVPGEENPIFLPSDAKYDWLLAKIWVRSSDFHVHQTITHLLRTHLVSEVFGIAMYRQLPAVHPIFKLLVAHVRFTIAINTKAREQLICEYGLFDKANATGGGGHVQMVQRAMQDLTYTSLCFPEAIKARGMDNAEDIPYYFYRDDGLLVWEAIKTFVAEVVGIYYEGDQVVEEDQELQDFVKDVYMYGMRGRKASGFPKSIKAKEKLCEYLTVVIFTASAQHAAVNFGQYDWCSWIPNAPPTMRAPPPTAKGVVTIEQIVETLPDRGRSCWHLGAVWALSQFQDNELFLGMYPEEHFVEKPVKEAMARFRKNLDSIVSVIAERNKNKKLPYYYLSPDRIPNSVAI
Protocol: The effectiveness of the compounds of the invention can be determined by means of the inhibition of 5-lipoxygenase or of cyclo-oxygenase. The research was carried out as follows: The source for 5-lipoxygenase were bovine granulocytes which can form leucotrienes just as human granulocytes do. By stimulation with calcium-ionophore (see BIOCHEM. BIOPHYS. ACTA 1984, 795, pp 499-503), mainly LTC4 (leucotriene C4) and LTB4 (leucotriene B4) are formed from endogenous arachidonic acid. The isolation of the granulocytes and the implementation of the enzyme reaction are conventional (see BIOCHEM. BIOPHYS. ACTA 1984, 795 pp 499-503). The blood protected against clotting by EDTA first is centrifuged for that purposed and the thrombotic excess is removed. Following lysis of the erythrocytes with water the lymphocytes and monocytes are separated from the granulocytes by means of a Ficoll gradient. The granulocytes are set to a specific cell number. The enzyme reaction is then begun in the presence or absence of the test substances following the addition of Ca^2+ with calcium ionophore. The synthesis of the leucotrienes is stopped after 5 minutes by adding a mixture of methanol and acetonitrile containing PGB2 as the internal standard and NDGA as the anti-oxidant. Next the samples are diluted in water and processed in the manner described in J. CHROMATOGR. […], 378, pp 208-214. LTB4 is measured at the absorption maximum at 270 nm. The arachidonic acid metabolites are observed present in this research in approximately quantitative manner. Tables 1 and 2 list the test results for the compounds of the invention, The test substances were at concentrations of 10 μM.

cyclo-oxygenase = molecular target: T2, cyclo-oxygenase (Bos taurus, UniProt O62664); experiment: inhibition of cyclo-oxygenase (12-HHT or prostaglandin E2 formed by calcium-ionophore stimulated bovine thrombocytes); conditions: Table 1, read-out: INHIBITION % Cyclooxygenase
T2 construct: formed by bovine thrombocytes following addition of calcium ionophore; endogenous in cells; host or cells: thrombocytes isolated from the supernatant of centrifuged bovine blood
T2 sequence (O62664 25-600): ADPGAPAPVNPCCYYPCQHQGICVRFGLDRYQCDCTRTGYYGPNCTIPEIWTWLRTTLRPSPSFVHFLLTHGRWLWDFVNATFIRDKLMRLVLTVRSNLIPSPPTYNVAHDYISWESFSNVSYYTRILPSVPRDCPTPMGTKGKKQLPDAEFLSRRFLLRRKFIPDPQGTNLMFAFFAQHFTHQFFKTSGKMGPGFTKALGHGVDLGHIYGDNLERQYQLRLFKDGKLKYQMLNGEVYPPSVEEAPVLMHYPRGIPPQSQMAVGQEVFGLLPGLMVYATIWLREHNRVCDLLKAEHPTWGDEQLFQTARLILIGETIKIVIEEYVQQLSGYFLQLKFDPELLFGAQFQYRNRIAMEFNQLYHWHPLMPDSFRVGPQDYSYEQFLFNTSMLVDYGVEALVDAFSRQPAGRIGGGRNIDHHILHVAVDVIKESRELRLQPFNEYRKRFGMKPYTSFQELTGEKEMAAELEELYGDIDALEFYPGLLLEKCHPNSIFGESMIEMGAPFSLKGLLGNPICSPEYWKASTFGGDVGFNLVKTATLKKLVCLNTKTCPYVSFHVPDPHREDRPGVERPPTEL
Protocol: The effectiveness of the compounds of the invention can be determined by means of the inhibition of 5-lipoxygenase or of cyclo-oxygenase. The research was carried out as follows:
In this test the 12-HHT amount of 12-hydroxyheptadecatriene acid or prostaglandin E2 amount formed by bovine thrombocytes following addition of calcium ionophore is determined by uv detection following HPLC separation. Following centrifuging of the bovine blood, the thrombocytes are isolated from the surnatant. The enzyme reaction and the isolation of the formed metabolites take place as when determining the 5-lipoxygenase inhibition, however the incubation time was one minute. The detection of 12 HHT following HPLC separation takes place at 232 nm.
Tables 1 and 2 list the test results for the compounds of the invention, The test substances were at concentrations of 10 μM.

5-lipoxygenase [2] = molecular target: T1, 5-lipoxygenase; experiment: inhibition of 5-lipoxygenase (LTB4 formed by calcium-ionophore stimulated bovine granulocytes); conditions: Table 1, 3,3 μM

| SMILES | inhibition at 10 µM (5-lipoxygenase [1]; Table 1) [%] | further results |
| --- | --- | --- |
| Cc1c(-c2ccccc2)c(-c2ccccc2)c(CCC(=O)O)n1CC(C)(C)C |  | inhibition at 10 µM (5-lipoxygenase [1]; Table 2): 97% |
| O=C(O)CCc1c(-c2cccc(Cl)c2)c(-c2ccccc2)c2n1CCC2 | 89 |  |
| COc1ccc(-c2c(-c3ccccc3)c3n(c2CCC(=O)O)CCC3)cc1 | 91 |  |
| CCCCn1c(C)c(-c2ccccc2)c(-c2ccccc2)c1CCC(=O)O |  | inhibition at 10 µM (5-lipoxygenase [1]; Table 2): 94% |
| CCCCCn1c(C)c(-c2ccccc2)c(-c2ccccc2)c1CCC(=O)O |  | inhibition at 10 µM (5-lipoxygenase [1]; Table 2): 99% |
| CCCCCCn1c(C)c(-c2ccccc2)c(-c2ccccc2)c1CCC(=O)O |  | inhibition at 10 µM (5-lipoxygenase [1]; Table 2): 99% |
| CC1(C)Cc2c(-c3ccccc3)c(-c3ccc(Oc4ccccc4)cc3)c(CCC(=O)O)n2C1 [3-(2,2-dimethyl-6-(4-phenoxyphenyl)-7-phenyl-2,3-dihydro-1H-pyrrolizine-5-yl) propionic acid] |  | inhibition at 3 µM (5-lipoxygenase [2]): 98% |
| O=C(O)CCCCc1c(-c2ccccc2)c(-c2ccccc2)n2c1CCC2 [(CH2)4 CO2 H, Phenyl, Phenyl, H, H] | 86 |  |
| O=C(O)CCCCc1c(-c2ccccc2)c2n(c1-c1ccccc1)CCC2 [Phenyl, (CH2)4 CO2 H, Phenyl, H, H] | 82 |  |
| CC1(C)Cc2c(-c3ccccc3)c(-c3ccccc3)c(CCC(=O)O)n2C1 [Phenyl, Phenyl, (CH2)2 CO2 H, CH3, CH3] | 91 | inhibition at 10 µM (cyclo-oxygenase): 97% |
| O=C(O)Cc1c(-c2ccccc2)c(-c2ccccc2)c2n1CCC2 [Phenyl, Phenyl, CH2 CO2 H, H, H] |  | inhibition at 10 µM (cyclo-oxygenase): 91% |
| Cc1ccc(-c2c(-c3ccccc3)c3n(c2CCC(=O)O)CCC3)cc1 [Phenyl, p-Tolyl, (CH2)2 CO2 H, H, H] | 92 |  |
| O=C(O)CCc1c(-c2cccc3ccccc23)c(-c2ccccc2)c2n1CCC2 [Phenyl, α-naphthyl, (CH2)2 CO2 H, H, H] | 94 |  |

Now from value to compound, other results behind:

| inhibition at 10 µM (5-lipoxygenase [1]; Table 1) [%] | SMILES | further results |
| --- | --- | --- |
| 98 | O=C(O)CCc1c(-c2ccc(Cl)cc2)c(-c2ccccc2)c2n1CCC2 |  |
| 98 | O=C(O)CCc1c(-c2ccc(Oc3ccccc3)cc2)c(-c2ccccc2)c2n1CCC2 | inhibition at 10 µM (cyclo-oxygenase): 70% |
| 93 | CC1(C)Cc2c(CCC(=O)O)c(-c3ccccc3)c(-c3ccccc3)n2C1 [(CH2)2 CO2 H, Phenyl, Phenyl, CH3, CH3] |  |
| 96 | CC1(C)Cc2c(CCCCCC(=O)O)c(-c3ccccc3)c(-c3ccccc3)n2C1 [(CH2)5 CO2 H, Phenyl, Phenyl, CH3, CH3] |  |
| 86 | O=C(O)CCCCCc1c(-c2ccccc2)c(-c2ccccc2)n2c1CCC2 [(CH2)5 CO2 H, Phenyl, Phenyl, H, H] |  |
| 91 | CC1(C)Cc2c(C=CC(=O)O)c(-c3ccccc3)c(-c3ccccc3)n2C1 [CHCHCO2 H, Phenyl, Phenyl, CH3, CH3] |  |
| 80 | O=C(O)CCCCCc1c(-c2ccccc2)c2n(c1-c1ccccc1)CCC2 [Phenyl, (CH2)5 CO2 H, Phenyl, H, H] |  |
| 82 | CCCCCCc1c(-c2ccccc2)c2n(c1C=CC(=O)O)CCC2 [Phenyl, C6 H13, CHCHCO2 H, H, H, 3-(6-(n-HEXYL)-7-PHENYL-2,3-DIHYDRO-1h-PYRROLIZINE-5-YL)-ACRYLIC ACID] |  |
| 94 | CC1(C)Cc2c(-c3ccccc3)c(-c3ccccc3)c(CC(=O)O)n2C1 [Phenyl, Phenyl, CH2 CO2 H, CH3, CH3, (2,2-dimethyl-6,7-diphenyl-2,3-dihydro-1H-pyrrolizine-5-yl)-acetic acid] | inhibition at 10 µM (cyclo-oxygenase): 99% |
| 80 | O=C(O)/C=C/c1c(-c2ccccc2)c(-c2ccccc2)c2n1CCC2 [Phenyl, Phenyl, CHCHCO2 H, H, H] |  |
